Our source for the IC50 values is patent publication US20240025918A1, “KRAS G12D Inhibitors” (Jacobio Pharmaceuticals Co., Ltd, priority 2020, published 2024).

The target in assay [1] is T1, GDP-loaded HIS-KRAS(G12D, aa 1-169) (Homo sapiens, UniProt P01116, G12D).
T1 construct: GDP-loaded HIS-KRAS(G12D, aa 1-169)
In words: SOS1 catalyzed nucleotide exchange assay (TR-FRET). Type of assay: biochemical. Particulars: 4 hours at 25° C. As to the method: GDP-loaded HIS-KRAS(G12D, aa 1-169) was pre-incubated with a compound in the presence of 10 nM GDPin a 384-well plate (Greiner) for 15 min, then purified SOS1 ExD(Flag tag, aa 564-1049), BODIPY™ FL GTP (Invitrogen) and MAb (monoclonal antibody) Anti 6HIS-Tb cryptate Gold (Cisbio) were added to the assay wells (Final concentration: 1.5 nM GDP-loaded HIS-KRAS(G12D), 5 nM GDP, 0.5 μM SOS1 ExD, 80 nM BODIPY™ FL GTP, 52.5 ng/mL MAb Anti 6HIS-Tb cryptate Gold) and incubated for 4 hours at 25° C. Wells containing same percent of DMSO served as vehicle control, and wells without KRAS served as low control. TR-FRET signals were read on Tecan Spark multimode microplate reader. The parameters were F486: Excitation 340 nm, Emission 486 nm, Lag time 100 μs, Integration time 200 μs; F515: Excitation 340 nm, Emission 515 nm, Lag time 100 μs, Integration time 200 μs. TR-FRET ratios for each individual wells were calculated by equation: TR-FRET ratio=(Signal F515/Signal F486)*10000. The percent of activation of compounds treated wells were normalized between vehicle control and low control (% Activation=(TR-FRET ratioCompound treated−TR-FRET ratioLow control)/(TR-FRET ratioVehicle control−TR-FRET ratioLow control)*100%). Then the data were analyzed by fitting a 4-parameter logistic model or calculating in Excel to calculate IC50 values.

Assay [2] deals with T2, GppNp-loaded HIS-KRAS(G12D, aa 1-169) and cRAF RBD (Homo sapiens, UniProt P01116, G12D).
T2 construct: GppNp-loaded HIS-KRAS(G12D, aa 1-169)
Kind of assay: GTP-KRAS and cRAF interaction assay (HTRF). Format: biochemical. Particulars: 2 hours at 25° C. As to the method:
GppNp-loaded HIS-KRAS(G12D, aa 1-169) was pre-incubated with a compound in the presence of 200 μM GTP in a 384-well plate (Greiner) for 15 min, then cRAF RBD(GST tag, aa 50-132, CreativeBioMart), MAb Anti GST-d2 (Cisbio) and MAb Anti 6HIS-Tb cryptate Gold (Cisbio) were added to the assay wells (Final concentration: 2.0 nM GppNp-loaded HIS-KRAS(G12D), 100 μM GTP, 35 nM cRAF RBD, 1 μg/mL MAb Anti GST-d2, 52.5 ng/mL MAb Anti 6HIS-Tb cryptate Gold) and incubated for 2 hours at 25° C. Wells containing same percent of DMSO served as vehicle control, and wells without KRAS served as low control. HTRF signals were read on Tecan Spark multimode microplate reader and HTRF ratios were calculated under manufacturer's instructions. The percent of activation of compounds treated wells were normalized between vehicle control and low control (% Activation=(HTRF ratioCompound treated−HTRF ratioLow control)/(HTRF ratioVehicle control−HTRF ratioLow control)*100%). Then the data were analyzed by fitting a 4-parameter logistic model or calculating in Excel to calculate IC50 values.

The test system of assay [3] is AGS cells expressing KRAS G12D. In words: Phospho-ERK1/2(THR202/TYR204) HTRF assay. Format: cell-based. As to conditions: Homo sapiens; Phospho-ERK1/2 in AGS cells, 2 hours incubation. As to the method:
AGS cells expressing KRAS G12D were cultured in F12K medium (Gibco) containing 10% fetal bovine serum (Gibco). The AGS cells in culture medium were seeded in 96-well plates at a concentration of 40,000 cells/well and then put in a 37° C./5% CO2 cell incubator to incubate overnight. The next day, culture medium was removed and the compound diluted in assay medium (F12K, 0.1% FBS) was added in each well. After 2 hours incubation in a 37° C./5% CO2 cell incubator, the assay medium in 96-well plates was removed, then 50 μL of 1× blocking reagent-supplemented lysis buffer (Cisbio) was added and the plates were incubated at 25° C. for 45 min with shaking. 10 μL of cell lysates from the 96-well plates were transferred to a 384-well plate (Greiner) containing 2.5 μL/well HTRF® pre-mixed antibodies (Cisbio 64AERPEH). Incubate 4 hours at 25° C. and then read HTRF signals on Tecan Spark multimode microplate reader. The data were analyzed using a 4-parameter logistic model to calculate IC50 values.
In general terms: Time-resolved FRET reads energy transfer from a long-lived donor to a nearby acceptor.

The test system of the next assay is AGS. In words: Cell growth inhibition assay, AGS (CellTiter-Glo). Format: cell-based. Particulars: Homo sapiens, 144 h; AGS cell viability, 6 days incubation. As to the method: AGS cultured in F12K medium (Gibco) containing 10% fetal bovine serum (Gibco). Cells in culture medium were plated in 96-well plates at a concentration of 500 cells/well (100 μL/well) and allowed to attach overnight.
(§1) The next day, compounds were diluted in culture medium and added to the plates. After 6 days incubation in a 37° C./5% CO2 cell incubator, the cell viability was detected by CellTiter-Glo® Luminescent Cell Viability Assay kit (Promega). Luminescent signals were read on Tecan Spark multimode microplate reader and analyzed using a 4-parameter logistic model to calculate IC50 values.
For orientation: Cellular ATP, detected with luciferase, serves as a proxy for viable cell number.

In a further assay the test system is AsPC-1. Kind of assay: Cell growth inhibition assay, AsPC-1 (CellTiter-Glo). Particulars: Homo sapiens, ASPC1, 144 h; AsPC-1 cell viability, 6 days incubation. Format: cell-based. As to the method:
AsPC-1 cultured in RPMI-1640 medium (Gibco) containing 10% fetal bovine serum (Gibco). Cells in culture medium were plated in 96-well plates at a concentration of 1000 cells/well (100 μL/well) and allowed to attach overnight.
as §1

T1 sequence (P01116 1-169 isoform P01116-2 G12D): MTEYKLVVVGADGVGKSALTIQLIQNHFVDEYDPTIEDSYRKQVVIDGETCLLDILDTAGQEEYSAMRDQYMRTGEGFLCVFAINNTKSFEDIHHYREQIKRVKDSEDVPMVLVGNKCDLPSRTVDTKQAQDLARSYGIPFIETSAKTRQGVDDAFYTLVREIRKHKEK
T2 sequence (P01116 1-169 isoform P01116-2 G12D): as above

As a reminder, the IC50 is the point on the concentration scale where inhibition reaches its midpoint. A high value points to lower potency. For `C#Cc1c(F)ccc2cc(O)cc(-c3c(C(C)C)cc4c(N5CC6CCC(C5)N6)nc(OCC5(CN6C[C@@H]7C[C@H]6CO7)CC5)nc4c3F)c12` [Compound 38], the results for the IC50 in assay [1] and in assay [2] were 1.15 nM and 5.82 nM, respectively.
With `C#Cc1cccc2cc(O)cc(-c3c(F)cc4c(N5CC6CCC(C5)N6)nc(OCC5(CN6CC7CC6CO7)CC5)nc4c3F)c12` (stereo not drawn) [Compound 13], the concentration for half-maximal inhibition (IC50) in assay [1] was 12 nM. This lies in the double-digit nanomolar range.
On to `CCc1c(F)ccc2cc(O)cc(-c3c(C(F)(F)F)cc4c(N5CC6CCC(C5)N6)nc(OCC5(CN6C[C@@H]7C[C@H]6CO7)CC5)nc4c3F)c12` [Compound 43], for which the half-inhibitory concentration (IC50) came out at 4.64 nM in assay [1] and 436 nM in assay [2].
Regarding `C#Cc1c(F)ccc2cc(O)cc(-c3c(C(F)(F)F)cc4c(N5CC6CCC(C5)N6)nc(OCC5(CN6C[C@@H]7C[C@H]6CO7)CC5)nc4c3F)c12` [Compound 40], the IC50 was determined as 1.29 nM in assay [1] and 8.09 nM in assay [2].
For the compound `C#Cc1cccc2cc(O)cc(-c3c(F)cc4c(N5CC6CCC(C5)N6)nc(OCC5(CN6CCC6)CC5)nc4c3F)c12` [Compound 1], the figures for the half-maximal inhibitory concentration (IC50) in assay [1], in assay [3] and in assay [2] were 5.41 nM, 58.3 nM and 247 nM, respectively.
Consider `C#Cc1cccc2cc(O)cc(-c3c(F)cc4c(N5CC6CCC(C5)N6)nc(OCC5(CN6CC7CC6CO7)CC5)nc4c3F)c12` (single isomer, unassigned) [Compound 36A], for which the figures for the IC50 in assay [1] and in assay [2] were greater than 100 nM and 20.2 nM, respectively.
With `C#Cc1cccc2cc(O)cc(-c3c(F)cc4c(N5CC6CCC(C5)N6)nc(OCC5(CN6CCn7cncc7C6)CC5)nc4c3F)c12` [Compound 53], the half-inhibitory concentration (IC50) in assay [1] is 2.59 nM; in assay [3], 80.3 nM; in assay [2], 818 nM.
Consider `C#Cc1c(F)ccc2cc(O)cc(-c3c(C#N)cc4c(N5CC6CCC(C5)N6)nc(OCC5(CN6C[C@@H]7C[C@H]6CO7)CC5)nc4c3F)c12` [Compound 41], for which the IC50 in assay [1] is 1.04 nM; in assay [2], 7.18 nM.
For the compound `C#Cc1c(F)ccc2cc(O)cc(-c3c(Cl)cc4c(N5CC6CCC(C5)N6)nc(OCC5(CN6CC7CC6CO7)CC5)nc4c3F)c12` (single isomer, unassigned) [Compound 4A], the IC50 in assay [1] is 244 nM; in assay [2] it was 1570 nM.
Take `C#Cc1cccc2cc(O)cc(-c3c(F)cc4c(N5CC6CCC(C5)N6)nc(OCC5(CN6CCC7(CC6)CC7(F)F)CC5)nc4c3F)c12` (single isomer, unassigned) [Compound 3A]: the IC50 was greater than 100 nM in assay [1] and 9080 nM in assay [2].
As for `C#Cc1cccc2cc(O)cc(-c3c(F)cc4c(N5CC6CCC(C5)N6)nc(OCC5(CN6Cc7ccccc7C6)CC5)nc4c3F)c12` [Compound 58], the IC50 was determined as 2.04 nM in assay [1], 34 nM in the assay on AGS, 188 nM in assay [2] and 91 nM with AsPC-1.
Consider `C#Cc1cccc2cc(O)cc(-c3c(F)cc4c(N5CC6CCC(C5)N6)nc(OCC5(CN6CC7CC6CO7)CC5)nc4c3F)c12` (single isomer, unassigned) [Compound 13A], for which the IC50 in assay [1] is greater than 100 nM; in assay [3], 271 nM; in assay [2], greater than 10000 nM.
Taken in the same sequence, the figures for `C#Cc1cccc2cc(O)cc(-c3c(F)cc4c(N5CC6CCC(C5)N6)nc(OCC5(CN6CC7(CC(OC)C7)C6)CC5)nc4c3F)c12` [Compound 49] were 3.95 nM, 46.4 nM and 73.2 nM.
In assay [1], `C#Cc1cccc2cc(O)cc(-c3c(F)cc4c(N5CC6CCC(C5)N6)nc(OCC5(CN6CC7(CCCO7)C6)CC5)nc4c3F)c12` [Compound 44] gave an IC50 of 35.7 nM.
For `C#Cc1c(F)ccc2cc(O)cc(-c3c(SC(F)(F)F)cc4c(N5CC6CCC(C5)N6)nc(OCC5(CN6C[C@@H]7C[C@H]6CO7)CC5)nc4c3F)c12` [Compound 42], the concentration for half-maximal inhibition (IC50) amounted to 0.97 nM in assay [1] and 4.04 nM in assay [2].
With `C#Cc1c(F)ccc2cc(O)cc(-c3c(Cl)cc4c(N5CC6CCC(C5)N6)nc(OCC5(CN6C[C@@H]7C[C@H]6CO7)CC5)nc4c3F)c12` [Compound 4], in assay [3], the IC50 came to 38.8 nM.
As for `C#Cc1cccc2cc(O)cc(-c3c(F)cc4c(N5CC6CCC(C5)N6)nc(OCC5(CN6CCc7ccccc7C6)CC5)nc4c3F)c12` [Compound 16], it took 27.3 nM to reach half-maximal inhibition in assay [1] (IC50).
Regarding `C#Cc1cccc2cc(O)cc(-c3c(F)cc4c(N5CC6CCC(C5)N6)nc(OCC5(CN6CCOC7(CC7)C6)CC5)nc4c3F)c12` [Compound 2], the IC50 in assay [1] was found to be 26 nM; in assay [2] it was 228 nM.
`C#Cc1cccc2cc(O)cc(-c3c(F)cc4c(N5CC6CCC(C5)N6)nc(OCC5(CN6CCOC7(CCC7)C6)CC5)nc4c3F)c12` [Compound 6]: the results for the 50% inhibitory concentration (IC50) in assay [1] and in assay [2] were 66.2 nM and 437 nM, respectively.
Taken in the same sequence, the figures for `C#Cc1cccc2cc(O)cc(-c3ccc4c(N5CC6CCC(C5)N6)nc(OCC5(Cc6ccccn6)CC5)nc4c3F)c12` [Compound 23] were greater than 100 nM and greater than 10000 nM.
For `C#Cc1cccc2cc(O)cc(-c3c(F)cc4c(N5CC6CCC(C5)N6)nc(OCC5(CN6C7COCC6C7)CC5)nc4c3F)c12` [Compound 57], the figures for the 50% inhibitory concentration (IC50) in assay [1], in assay [3] and in assay [2] were 6.81 nM, 46.3 nM and 439 nM, respectively.
For the compound `C#Cc1cccc2cc(O)cc(-c3c(F)cc4c(N5CC6CCC(C5)N6)nc(OCC5(CN6CC7(CC(O)C7)C6)CC5)nc4c3F)c12` [Compound 18], the figures for the IC50 in assay [1] and in assay [2] were 0.975 nM and 77.8 nM, respectively.
In the case of `C#Cc1cccc2cc(O)cc(-c3c(F)cc4c(N5CC6CCC(C5)N6)nc(OCC5(CN6CCOC7(CC7)C6)CC5)nc4c3F)c12` (single isomer, unassigned) [Compound 2A], the results for the IC50 in assay [1] and in assay [2] were greater than 100 nM and greater than 10000 nM, respectively.
For the compound `C#Cc1cccc2cc(O)cc(-c3c(F)cc4c(N5CC6CCC(C5)N6)nc(OCC5(CN6CC(C)(O)C6)CC5)nc4c3F)c12` [Compound 29], the IC50 was found to be 3.5 nM in assay [1], 25 nM in assay [3] and 71.6 nM in assay [2].
Regarding `C#Cc1c(F)ccc2cc(O)cc(-c3c(Cl)cc4c(N5CC6CCC(C5)N6)nc(OCC5(CN6CC7CC6CO7)CC5)nc4c3F)c12` (single isomer, unassigned) [Compound 4B], the values for the IC50 in assay [1] and in assay [2] were 0.31 nM and 9.19 nM, respectively.
In the case of `C#Cc1cccc2cc(O)cc(-c3c(F)cc4c(N5CC6CCC(C5)N6)nc(OCC5(CN6CC(O)C6)CC5)nc4c3F)c12` [Compound 26], the IC50 in assay [1] worked out at 2.58 nM; in assay [3], 56.3 nM; in assay [2] it was 113 nM.
